According to ChEMBL document CHEMBL3046894, “Synthesis and Herbicidal Activity of Pyrimidinyl Salicylic and Thiosalicylic Acids” (J Pestic Sci, 1996):
Active and inactive are the calls of the source.

What was measured:
[1] = system: Gossypium hirsutum; assay: Post-emergence phytotoxicity against Gossypium hirsutum (cotton) assessed as mortality per 10 acre; format: organism-based; conditions: in vivo
[2] = system: Echinochloa crus-galli; assay: Pre-emergence herbicidal activity against Echinochloa crus-galli (barnyard grass) assessed as mortality at 6.3 g a.i/10 a; format: functional; conditions: Echinochloa crus-galli, pre-emergence
[3] = system: Abutilon theophrasti; assay: Post-emergence herbicidal activity against Abutilon theophrasti (velvetleaf) assessed as mortality at 1.6 g a.i/10 a applied 11 days after germination as foliar spray; format: functional; conditions: 264 h
[4] = system: Abutilon theophrasti; assay: Post-emergence herbicidal activity against Abutilon theophrasti (velvetleaf) assessed as mortality at 6.3 g a.i/10 a applied 11 days after germination as foliar spray; format: functional; conditions: 264 h
[5] = system: Gossypium hirsutum; assay: Pre-emergence phytotoxicity against Gossypium hirsutum (cotton) assessed as mortality at 6.3 g a.i/10 a; format: organism-based; conditions: in vivo, other
[6] = system: Gossypium hirsutum; assay: Pre-emergence phytotoxicity against Gossypium hirsutum (cotton) assessed as mortality at 1.6 g a.i/10 a; format: organism-based; conditions: in vivo, other
[7] = system: Glycine max; assay: Pre-emergence phytotoxicity against Glycine max (soybean) assessed as mortality at 1.6 g a.i/10 a; format: organism-based; conditions: in vivo, other
[8] = (§1) Pre-emergence phytotoxicity against Glycine max (soybean) assessed as mortality at 6.3 g a.i/10 a; format: organism-based; conditions: in vivo, 6.3 g a.i/10 a, read-out: mortality
[9] = (§2) Pre-emergence phytotoxicity against Zea mays (maize) assessed as mortality at 1.6 g a.i/10 a; format: organism-based; conditions: in vivo, 1.6 g a.i/10 a, read-out: mortality
[10] = system: Gossypium hirsutum; assay: Post-emergence phytotoxicity against Gossypium hirsutum (cotton) assessed as mortality at 1.6 g a.i/10 a applied 11 days after germination as foliar spray; format: organism-based; conditions: in vivo, other, 264 h
[11] = system: Gossypium hirsutum; assay: Post-emergence phytotoxicity against Gossypium hirsutum (cotton) assessed as mortality at 6.3 g a.i/10 a applied 11 days after germination as foliar spray; format: organism-based; conditions: in vivo, other, 264 h
[12] = (§3) Post-emergence phytotoxicity against Glycine max (soybean) assessed as mortality at 1.6 g a.i/10 a applied 11 days after germination as foliar spray; format: organism-based; conditions: in vivo, 1.6 g a.i/10 a
[13] = (§4) Post-emergence phytotoxicity against Zea mays (maize) assessed as mortality at 1.6 g a.i/10 a applied 11 days after germination as foliar spray; format: organism-based; conditions: in vivo, 1.6 g a.i/10 a
[14] = system: Echinochloa crus-galli; assay: Post-emergence herbicidal activity against Echinochloa crus-galli (barnyard grass) assessed as mortality at 1.6 g a.i/10 a applied 11 days after germination as foliar spray; format: functional; conditions: 264 h
[15] = system: Echinochloa crus-galli; assay: Post-emergence herbicidal activity against Echinochloa crus-galli (barnyard grass) assessed as mortality at 6.3 g a.i/10 a applied 11 days after germination as foliar spray; format: functional; conditions: 264 h
[16] = system: Cyperus iria; assay: Pre-emergence herbicidal activity against Cyperus iria assessed as growth inhibition at 25 g a.i/10 a; format: functional, organism-based
[17] = system: Chenopodium album; assay: Pre-emergence herbicidal activity against Chenopodium album assessed as growth inhibition at 25 g a.i/10 a; format: functional, organism-based
[18] = system: Amaranthus retroflexus; assay: Pre-emergence herbicidal activity against Amaranthus retroflexus assessed as growth inhibition at 25 g a.i/10 a; format: functional, organism-based
[19] = system: Persicaria nodosa; assay: Pre-emergence herbicidal activity against Persicaria nodosa assessed as growth inhibition at 25 g a.i/10 a; format: functional, organism-based
[20] = system: Digitaria sanguinalis; assay: Pre-emergence herbicidal activity against Digitaria sanguinalis (hairy crabgrass) assessed as growth inhibition at 25 g a.i/10 a; format: functional, organism-based
[21] = system: Echinochloa crus-galli; assay: Pre-emergence herbicidal activity against Echinochloa crus-galli (barnyard grass) assessed as growth inhibition at 25 g a.i/10 a; format: functional, organism-based
[22] = system: Cyperus iria; assay: Post-emergence herbicidal activity against Cyperus iria assessed as growth inhibition at 25 g a.i/10 a applied 11 days after germination as foliar spray; format: functional, organism-based
[23] = system: Chenopodium album; assay: Post-emergence herbicidal activity against Chenopodium album assessed as growth inhibition at 25 g a.i/10 a applied 11 days after germination as foliar spray; format: functional, organism-based
[24] = system: Amaranthus retroflexus; assay: Post-emergence herbicidal activity against Amaranthus retroflexus assessed as growth inhibition at 25 g a.i/10 a applied 11 days after germination as foliar spray; format: functional, organism-based
[25] = system: Persicaria nodosa; assay: Post-emergence herbicidal activity against Persicaria nodosa assessed as growth inhibition at 25 g a.i/10 a applied 11 days after germination as foliar spray; format: functional, organism-based
[26] = system: Digitaria sanguinalis; assay: Post-emergence herbicidal activity against Digitaria sanguinalis (hairy crabgrass) assessed as growth inhibition at 25 g a.i/10 a applied 11 days after germination as foliar spray; format: functional, organism-based
[27] = system: Echinochloa crus-galli; assay: Post-emergence herbicidal activity against Echinochloa crus-galli (barnyard grass) assessed as growth inhibition at 25 g a.i/10 a applied 11 days after germination as foliar spray; format: functional, organism-based
[28] = system: Ipomoea lacunosa; assay: Pre-emergence herbicidal activity against Ipomoea lacunosa assessed as mortality per 10 acre; format: functional
[29] = system: Persicaria nodosa; assay: Pre-emergence herbicidal activity against Persicaria nodosa assessed as mortality per 10 acre; format: functional
[30] = system: Amaranthus retroflexus; assay: Pre-emergence herbicidal activity against Amaranthus retroflexus assessed as mortality per 10 acre; format: functional
[31] = system: Echinochloa crus-galli; assay: Pre-emergence herbicidal activity against Echinochloa crus-galli (barnyard grass) assessed as mortality per 10 acre; format: functional
[32] = system: Gossypium hirsutum; assay: Pre-emergence phytotoxicity against Gossypium hirsutum (cotton) assessed as mortality per 10 acre; format: organism-based; conditions: in vivo
[33] = system: Xanthium strumarium; assay: Post-emergence herbicidal activity against Xanthium strumarium (cocklebur) assessed as mortality per 10 acre; format: functional
[34] = system: Ipomoea lacunosa; assay: Post-emergence herbicidal activity against Ipomoea lacunosa assessed as mortality per 10 acre; format: functional
[35] = system: Persicaria nodosa; assay: Post-emergence herbicidal activity against Persicaria nodosa assessed as mortality per 10 acre; format: functional
[36] = system: Amaranthus retroflexus; assay: Post-emergence herbicidal activity against Amaranthus retroflexus assessed as mortality per 10 acre; format: functional
[37] = system: Echinochloa crus-galli; assay: Post-emergence herbicidal activity against Echinochloa crus-galli (barnyard grass) assessed as mortality per 10 acre; format: functional
[38] = system: Xanthium strumarium; assay: Pre-emergence herbicidal activity against Xanthium strumarium (cocklebur) assessed as mortality per 10 acre; format: functional
[39] = system: Abutilon theophrasti; assay: Pre-emergence herbicidal activity against Abutilon theophrasti (velvetleaf) assessed as mortality at 6.3 g a.i/10 a; format: functional; conditions: Abutilon theophrasti, pre-emergence
[40] = system: Ipomoea lacunosa; assay: Post-emergence herbicidal activity against Ipomoea lacunosa assessed as mortality at 1.6 g a.i/10 a applied 11 days after germination as foliar spray; format: functional; conditions: 264 h
[41] = system: Glycine max; assay: as §1; format: organism-based; conditions: in vivo, other
[42] = system: Zea mays; assay: as §2; format: organism-based; conditions: in vivo, other
[43] = system: Zea mays; assay: Pre-emergence phytotoxicity against Zea mays (maize) assessed as mortality at 6.3 g a.i/10 a; format: organism-based; conditions: in vivo, other
[44] = system: Glycine max; assay: Post-emergence phytotoxicity against Glycine max (soybean) assessed as mortality at 6.3 g a.i/10 a applied 11 days after germination as foliar spray; format: organism-based; conditions: in vivo, other, 264 h
[45] = system: Glycine max; assay: as §3; format: organism-based; conditions: in vivo, other, 264 h
[46] = system: Zea mays; assay: as §4; format: organism-based; conditions: in vivo, other, 264 h
[47] = system: Xanthium strumarium; assay: Post-emergence herbicidal activity against Xanthium strumarium (cocklebur) assessed as mortality at 1.6 g a.i/10 a applied 11 days after germination as foliar spray; format: functional; conditions: 264 h
[48] = system: Xanthium strumarium; assay: Pre-emergence herbicidal activity against Xanthium strumarium (cocklebur) assessed as mortality at 1.6 g a.i/10 a; format: functional; conditions: Xanthium strumarium, pre-emergence
[49] = system: Xanthium strumarium; assay: Pre-emergence herbicidal activity against Xanthium strumarium (cocklebur) assessed as mortality at 6.3 g a.i/10 a; format: functional; conditions: Xanthium strumarium, pre-emergence
[50] = system: Ipomoea lacunosa; assay: Pre-emergence herbicidal activity against Ipomoea lacunosa assessed as mortality at 1.6 g a.i/10 a; format: functional; conditions: Ipomoea lacunosa, pre-emergence
[51] = system: Ipomoea lacunosa; assay: Pre-emergence herbicidal activity against Ipomoea lacunosa assessed as mortality at 6.3 g a.i/10 a; format: functional; conditions: Ipomoea lacunosa, pre-emergence
[52] = system: Abutilon theophrasti; assay: Pre-emergence herbicidal activity against Abutilon theophrasti (velvetleaf) assessed as mortality at 1.6 g a.i/10 a; format: functional; conditions: Abutilon theophrasti, pre-emergence

COc1cc(OC)nc(Oc2cccc(Cl)c2C(=O)O)n1
0.4 gAi: ED90 [29] | ED90 [30]
Non-toxic: Activity [5] | Activity [6]
0.8 gAi: ED90 [34]
Toxic: Activity [7] | Activity [10] | Activity [11] | ED20 [32]
25 gAi: ED90 [28] | ED90 [38]
active: growth inhibition (GI) [16] | growth inhibition (GI) [17] | growth inhibition (GI) [18] | growth inhibition (GI) [19] | growth inhibition (GI) [20] | growth inhibition (GI) [21] | growth inhibition (GI) [22] | growth inhibition (GI) [23] | growth inhibition (GI) [24] | growth inhibition (GI) [25] | growth inhibition (GI) [26] | growth inhibition (GI) [27]
0.2 gAi: ED20 [1] | ED90 [35] | ED90 [36]
inactive: ED90 [31]
> 90%: mortality at 63 g/ha [2] | mortality at 16 g/ha [3] | mortality at 63 g/ha [4] | mortality [8] | mortality [9] | mortality at 264 h [12] | mortality at 264 h [13] | mortality at 16 g/ha [14] | mortality at 63 g/ha [15] | mortality at 63 g/ha [39]
1.5 gAi: ED90 [33] | ED90 [37]

COc1cc(OC)nc(Oc2ccccc2C(=O)O)n1
50 gAi: ED90 [37]
12 gAi: ED20 [1] | ED90 [29] | ED90 [31] | ED20 [32] | ED90 [35] | ED90 [36]
Non-toxic: Activity [5] | Activity [6] | Activity [7] | Activity [41] | Activity [42]
Toxic: Activity [43] | Activity [10] | Activity [11] | Activity [44] | Activity [45] | Activity [46]
< 5%: mortality at 16 g/ha [40] | mortality at 16 g/ha [3] | mortality at 16 g/ha [47] | mortality at 16 g/ha [48] | mortality at 63 g/ha [49] | mortality at 16 g/ha [50] | mortality at 63 g/ha [51] | mortality at 16 g/ha [52] | mortality at 63 g/ha [39]
inactive: growth inhibition (GI) [19]
>100 gAi: ED90 [28] | ED90 [33] | ED90 [34] | ED90 [38]
active: growth inhibition (GI) [16] | growth inhibition (GI) [17] | growth inhibition (GI) [18] | growth inhibition (GI) [20] | growth inhibition (GI) [21] | growth inhibition (GI) [22] | growth inhibition (GI) [23] | growth inhibition (GI) [24] | growth inhibition (GI) [25] | growth inhibition (GI) [26] | growth inhibition (GI) [27] | ED90 [30]
